In PubChem BioAssay (NCI):
Where “and” joins values, the source holds several entries; their conditions need not be identical. Identical values can stand only once.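 Method: 48-hour compound exposure of cells in 96-well plates, five concentrations, linear interpolation of endpoints. GI50 marks 50% less growth. TGI: total growth inhibition.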

Experiments:
Experiment in all cases: NCI-60 cell line screen, 48 h
[1] = tested on: 786-0 renal
[2] = tested on: CCRF-CEM leukemia
[3] = tested on: MOLT-4 leukemia
[4] = tested on: NCI-H460 lung
[5] = tested on: PC-3 prostate
[6] = tested on: RXF 393 renal
[7] = tested on: SF-295 CNS
[8] = tested on: SK-MEL-2 melanoma
[9] = tested on: SN12C renal
[10] = tested on: SW-620 colon

SMILES	GI50 [1]	TGI [1] [µM]	GI50 [2] [µM]	TGI [2] [µM]	GI50 [3]	TGI [3] [µM]	GI50 [4]	TGI [4] [µM]	GI50 [5]	TGI [5] [µM]	GI50 [6] [µM]	TGI [6] [µM]	GI50 [7]	TGI [7] [µM]	GI50 [8] [µM]	TGI [8] [µM]	GI50 [9] [µM]	TGI [9] [µM]	GI50 [10]	TGI [10] [µM]
Cn1cnc([N+](=O)[O-])c1S(=O)(=O)Oc1ccc(Cl)cc1	17 µM	33	2.33	7.05	2.25 µM	5.26	32.3 µM	> 100	17.2 µM	49.2	2.77	8.01	25.2 µM	> 100	18.7	61.1	13.2	30.8	1.69 µM	3.29
ClCc1ccccc1Cn1cnc2nc(Cl)nc(Cl)c21	0.19 µM	1.08	0.104	0.305	1.49 µM	4.09	2.09 µM	> 24.3	0.323 µM	1.81		2.94	9.28 µM	32.3	1.89	8.59	1.17	2.56	0.266 µM	0.682
COc1cc2c(cc1OC)[C@@H]1C(=O)c3ccc4c(c3O[C@@H]1CO2)C[C@H](C(C)C)O4	5.6 µM	> 79.8	5.41	> 100	6.81 µM	> 69.2	4.33 µM	45.8	1.98 µM	> 30.5	16.4	> 76.9	0.294 µM		18.5	57	10.6	> 76.8	9.05 µM	> 46.7
O=C1OC2(c3ccc(O)cc3Oc3cc(O)ccc32)c2cccc3cccc1c23	27 µM	81.3	26.5	> 100	31.6 µM	> 100	23.1 µM	61.4	36.2 µM	> 100	13.8	26.9	32.3 µM	> 100	21.4	48	22.1	82.9	16.5 µM	42.7
Cc1nnn(C)c1-c1cnc2c3ccc(C(C)(C)O)cc3n([C@H](c3ccccc3)C3CCOCC3)c2c1	0.0707 µM	21.5	0.0663	> 100	0.197 µM	> 100	0.966 µM	> 65.7	0.765 µM	> 100	1.16	20.4	0.0555 µM	20.5	0.765	30.7	1.4	> 74.9	7 µM	> 72.1
O=C(COc1ccccc1)NNc1ccccc1	> 68.5 µM and 66.1 µM	> 300	8.18		25.5 µM and 16.3 µM	> 300	17.1 µM and 15.8 µM	> 300	45.3 µM and 44.1 µM	> 300	98.9	> 300	18.3 µM and 11.2 µM	> 300	74.5	> 300	> 300	> 300	13.4 µM and 18.9 µM	> 300
OCc1ccc(-c2nc(-c3ccc4c(c3)OCO4)c(-c3ccccn3)[nH]2)cc1	> 25 µM	> 25	> 25	> 25	> 25 µM	> 25	> 20.9 µM	> 25	> 25 µM	> 25	> 16.5	> 25	> 25 µM	> 25	> 25	> 25	> 25	> 25	> 25 µM	> 25
COc1ccc(OC)c(N2CC(O)=C(c3nc4ccccc4s3)C2=N)c1	> 100 µM	> 100	0.541	> 100	4.16 µM	> 100	63 µM	> 100	52.5 µM	> 100	95	> 100	60.9 µM	> 100	26.1	> 100	58	> 100	32.7 µM	> 100
O=CN/C=C/c1ccccc1		> 100		> 100		> 100		> 100		> 100		> 100		> 100		> 100		> 100		> 85.6
Oc1ccc(N=Nc2ccc(Br)cc2)c(O)c1	3.17 µM	23.6	1.91	4.82	1.94 µM	5.56	3.29 µM	21.5	3.08 µM	21.7	1.19	9.56	2.64 µM	11.5	2.64	12	6.54	50	3.64 µM	> 100
